Test results published in patent US6503935B1, “Imidazoles and related compounds as α1A agonists” (Abbott Laboratories, priority 1998, dated 2003).
pKi: −log10 of the molar value. Like-named read-outs stand apart in the source and are kept apart here.

How the values were obtained:
Anesthetized Dogs [1] = assay: Intraurethral pressure (IUP) in anesthetized dogs; assay type: in vivo, dog; conditions: Canis lupus familiaris; iv dose causing a maximum increase in IUP of 5 mm Hg, anesthetized female dogs; read-out: Mean IUP ED5
Anesthetized Dogs [2] = assay: Mean arterial pressure (MAP) in anesthetized dogs; assay type: in vivo, dog; conditions: iv dose causing a maximum increase in MAP of 20 mm Hg, anesthetized female dogs
From the text: (§1) In vivo Functional Assays-Assessment of Intrurethral Pressure (IUP) and Mean Arterial Pressure (MAP) in Anesthetized Dogs
(§2) Female dogs (Marshall Farms, North Rose, N.Y.) greater that 2 years of age and weighing between 12 and 15 kg were used in these studies. At least 2 weeks prior to any agonist dosing, dogs were instrumented for the chronic measurement of arterial blood pressure by implanting a telemetry transducer/transmitter (TA11PA-C40, Data Sciences International, St. Paul, Minn.) into a carotid artery.
(§3) On the test day, dogs fasted since the previous afternoon were pre-anesthetized with thiopental sodium 15 mg/kg i.v. (Pentothal™, Abbott) and intubated. Anesthesia was maintained by allowing the dog to spontaneously breathe a mixture of isoflurane (2.5 to 3 volume %) and oxygen delivered by a Narkomed Standard anesthesia system (North American Drager, Telford, Pa.). An Abbocath-T™ i.v. catheter (18-G, Abbott) was inserted into the cephalic vein for the administration of agonists. A telemetry receiver (RA1310, DataSciences) was placed under the head of each dog and was interfaced to a computerized data acquisition system (Modular Instruments Inc.(MI2), Malvern, Pa.) which allowed for the continuous calibrated recording of arterial blood pressure which was electronically filtered to determine its mean value (MAP).
(§4) Dogs with chronic telemetry implants anesthetized as described above were placed in dorsal recumbency and a balloon catheter was inserted into the urethral orifice and advanced approximately 15 cm until the tip was well inside the bladder. The balloon was then inflated with 1 ml of room air and the catheter slowly withdrawn until resistance (corresponding to the bladder neck) was evident. The balloon was then deflated and the catheter withdrawn an additional 2 cm. The balloon was then reinflated and its catheter port connected to a Gould Statham P23Dd pressure transducer interfaced to a computerized data acquisition system (Modular Instruments, Inc., Malvern, Pa.) for the measurement of intraurethral pressure. Increasing iv doses of test agonists were administered and the maximum effect of each dose on IUP was recorded. The effect of each dose was allowed to return to baseline before the next dose was given.
(§5) From the resulting dose response curve, an ED5 value, for the dose causing a maximum increase in IUP of 5 mm Hg, could be estimated. An ED20 value for the dose causing a maximum increase in MAP of 20 mm Hg could also be estimated. A selectivity ratio of MAP ED20 vs. IUP ED5 was calculated.

α1D (rat aorta) = molecular target: T1, α1D (rat aorta) (Rattus norvegicus, UniProt P23944); assay: Agonist contraction of smooth muscle tissue, rat aorta; assay type: cell-based; conditions: rat aorta, endothelium removed; read-out: Agonist Tissue Response (pD2) α1D (rat aorta) (converted)
T1 construct: α1B (rat spleen) and α1D (rat aorta) receptors; from tissue; host or cells: rat aorta strips, endothelium removed
T1 sequence (P23944 1-561): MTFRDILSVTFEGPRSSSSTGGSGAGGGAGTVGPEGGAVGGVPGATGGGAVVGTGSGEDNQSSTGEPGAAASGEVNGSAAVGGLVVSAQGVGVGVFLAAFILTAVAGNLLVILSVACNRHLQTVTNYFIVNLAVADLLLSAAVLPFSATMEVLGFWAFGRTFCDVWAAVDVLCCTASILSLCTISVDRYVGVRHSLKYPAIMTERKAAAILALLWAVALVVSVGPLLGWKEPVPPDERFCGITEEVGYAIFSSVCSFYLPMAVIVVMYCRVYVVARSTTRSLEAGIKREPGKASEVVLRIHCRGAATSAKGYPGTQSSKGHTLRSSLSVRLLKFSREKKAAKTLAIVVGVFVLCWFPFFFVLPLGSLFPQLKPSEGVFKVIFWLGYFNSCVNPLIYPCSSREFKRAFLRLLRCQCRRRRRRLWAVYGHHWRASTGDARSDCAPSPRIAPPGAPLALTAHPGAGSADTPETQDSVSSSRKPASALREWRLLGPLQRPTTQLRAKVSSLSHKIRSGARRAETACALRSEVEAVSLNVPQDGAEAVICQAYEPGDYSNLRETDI

[3] = molecular target: T2, α1d (rat receptor expressed in mouse fibroblasts) (Rattus norvegicus, UniProt P23944); assay: Radioligand binding with [3H]-prazosin, α1d; conditions: rat receptor expressed in mouse fibroblasts, [3H]-prazosin; read-out: Radioligand Binding Ki α1d (Rat)
T2 construct: expressed in transfected cells; host or cells: mouse fibroblasts
T2 sequence (P23944 1-561): T1 sequence (P23944 1-561)
Experimental: (§6) For purposes of discussing α1 adrenoceptor subtypes, the IUPHAR convention of using lower case letters to define molecular clones and upper case letters to indicate pharmacologically defined adrenoceptors has been followed. Compounds of formula I were evaluated in radioligand binding assays specific for α1A (rat submaxillary gland), α1b (hamster receptor expressed in mouse fibroblasts) and α1d (rat receptor expressed in mouse fibroblasts) using [^3H]-prazosin as the radioligand as described in Knepper, et al. J. Pharm.

[4] = molecular target: T3, α1b (hamster receptor expressed in mouse fibroblasts) (Mesocricetus auratus, UniProt P18841); assay: Radioligand binding with [3H]-prazosin, α1b; conditions: hamster receptor expressed in mouse fibroblasts, [3H]-prazosin; read-out: Radioligand Binding Ki α1b (Hamster)
T3 construct: expressed in transfected cells; host or cells: mouse fibroblasts
T3 sequence (P18841 1-515): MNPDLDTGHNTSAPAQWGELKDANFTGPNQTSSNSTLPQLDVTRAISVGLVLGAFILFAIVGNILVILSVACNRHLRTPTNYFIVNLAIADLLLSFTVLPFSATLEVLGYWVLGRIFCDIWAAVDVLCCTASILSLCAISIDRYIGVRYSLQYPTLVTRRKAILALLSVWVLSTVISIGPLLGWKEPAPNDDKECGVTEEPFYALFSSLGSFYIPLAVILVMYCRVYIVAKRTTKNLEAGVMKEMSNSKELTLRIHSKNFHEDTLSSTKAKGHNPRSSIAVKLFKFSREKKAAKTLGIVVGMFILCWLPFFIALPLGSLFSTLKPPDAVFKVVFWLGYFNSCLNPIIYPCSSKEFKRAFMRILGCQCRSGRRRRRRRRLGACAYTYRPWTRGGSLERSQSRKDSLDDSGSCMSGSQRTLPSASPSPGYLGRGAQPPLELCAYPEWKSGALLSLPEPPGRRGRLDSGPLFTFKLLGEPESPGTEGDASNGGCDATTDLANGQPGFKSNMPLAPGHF
Experimental: as §6

[5] = molecular target: T4, α1A (rat submaxillary gland) (Rattus norvegicus, UniProt P43140); assay: Radioligand binding with [3H]-prazosin, α1A; conditions: rat submaxillary gland, [3H]-prazosin
T4 construct: α1A (rat submaxillary gland); from tissue; host or cells: rat submaxillary gland
T4 sequence (P43140 1-466): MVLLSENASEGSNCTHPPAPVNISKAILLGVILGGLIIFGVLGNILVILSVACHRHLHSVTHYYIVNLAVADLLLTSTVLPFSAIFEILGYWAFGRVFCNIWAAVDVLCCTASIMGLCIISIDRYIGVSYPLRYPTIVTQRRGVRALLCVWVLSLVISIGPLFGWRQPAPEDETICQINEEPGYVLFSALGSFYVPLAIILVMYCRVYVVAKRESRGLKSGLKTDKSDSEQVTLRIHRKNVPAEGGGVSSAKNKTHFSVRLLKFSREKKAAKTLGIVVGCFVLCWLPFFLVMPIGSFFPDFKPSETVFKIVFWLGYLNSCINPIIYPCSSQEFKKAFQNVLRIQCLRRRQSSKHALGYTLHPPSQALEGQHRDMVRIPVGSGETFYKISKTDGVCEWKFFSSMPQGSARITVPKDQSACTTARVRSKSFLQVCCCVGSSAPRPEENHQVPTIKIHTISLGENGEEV
Experimental: as §6

α1B (rat spleen) = molecular target: T5, α1B (rat spleen) (Rattus norvegicus, UniProt P15823); assay: Agonist contraction of smooth muscle tissue, rat spleen; assay type: cell-based; conditions: rat spleen; read-out: Agonist Tissue Response (pD2) α1B (rat spleen) (converted)
T5 construct: α1B (rat spleen) and α1D (rat aorta) receptors; from tissue; host or cells: rat spleen
T5 sequence (P15823 1-515): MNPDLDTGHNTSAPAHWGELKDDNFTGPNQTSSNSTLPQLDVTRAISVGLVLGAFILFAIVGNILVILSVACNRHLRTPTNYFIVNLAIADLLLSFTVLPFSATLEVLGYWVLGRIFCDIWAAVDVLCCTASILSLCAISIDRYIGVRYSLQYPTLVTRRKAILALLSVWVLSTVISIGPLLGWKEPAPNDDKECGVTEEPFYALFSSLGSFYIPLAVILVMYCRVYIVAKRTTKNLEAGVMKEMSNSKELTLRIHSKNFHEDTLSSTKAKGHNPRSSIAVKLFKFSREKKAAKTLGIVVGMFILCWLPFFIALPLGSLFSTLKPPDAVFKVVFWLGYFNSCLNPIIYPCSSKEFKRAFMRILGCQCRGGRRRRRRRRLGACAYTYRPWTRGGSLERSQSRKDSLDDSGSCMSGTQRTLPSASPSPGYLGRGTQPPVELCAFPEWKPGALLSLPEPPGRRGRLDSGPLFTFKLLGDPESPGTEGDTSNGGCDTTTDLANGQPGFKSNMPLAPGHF

α1A (rabbit urethra) = molecular target: T6, α1A (rabbit urethra) (Oryctolagus cuniculus, UniProt O02824); assay: Agonist contraction of smooth muscle tissue, rabbit urethra; assay type: cell-based; conditions: rabbit urethra; read-out: Agonist Tissue Response (pD2) α1A (rab ureth) (converted)
T6 construct: tested for α1A functional activity using rabbit urethra; from tissue; host or cells: rabbit urethra
T6 sequence (O02824 1-466): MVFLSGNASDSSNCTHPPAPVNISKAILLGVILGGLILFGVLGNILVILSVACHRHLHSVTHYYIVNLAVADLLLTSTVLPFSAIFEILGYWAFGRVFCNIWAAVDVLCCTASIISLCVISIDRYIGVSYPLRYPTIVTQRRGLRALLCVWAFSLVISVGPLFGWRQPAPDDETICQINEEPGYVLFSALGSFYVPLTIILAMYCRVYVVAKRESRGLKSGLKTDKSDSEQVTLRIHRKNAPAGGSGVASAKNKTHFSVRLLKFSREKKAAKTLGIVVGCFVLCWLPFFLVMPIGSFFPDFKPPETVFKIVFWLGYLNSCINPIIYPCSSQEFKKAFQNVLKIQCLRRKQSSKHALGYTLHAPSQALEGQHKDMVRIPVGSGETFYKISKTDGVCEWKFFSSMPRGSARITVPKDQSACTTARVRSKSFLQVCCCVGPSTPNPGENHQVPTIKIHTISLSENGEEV
Experimental: Most of the compounds were tested for α1A functional activity using rabbit urethra as follows. Female New Zealand white rabbits (2.0-3.5 Kg) were sedated with CO2 and decapitated. […] Subsequent experimental conditions were as described above for the other tissues. Agonist concentration response curves were cumulative except for the vas deferens assay in which the transient response made such measurements impractical.

Anesthetized Dogs [6] = assay: Intraurethral pressure (IUP) in anesthetized dogs; assay type: in vivo, dog; conditions: iv, anesthetized female dogs
From the text: as §1, §2, §3, §4, §5

Row | Compound | ED (5 mmHg IUP increase) (Anesthetized Dogs [1]) [µmol/kg] | Mean MAP ED20 (Anesthetized Dogs [2]) [nmol/kg] | EC50 (α1D (rat aorta)) [mM] | pKi [3] | pKi [4] | pKi [5] | EC50 (α1B (rat spleen)) [µM] | EC50 (α1A (rabbit urethra)) [nM] | ED (5 mmHg IUP increase) (Anesthetized Dogs [6]; Canis lupus familiaris, iv dose causing a maximum increase in IUP of 5 mm Hg, read-out: Mean IUP ED5) [µmol/kg] | Mean Selectivity Ratio MAP ED20/IUP ED5 (Anesthetized Dogs [6])
1 | CS(=O)(=O)Nc1cccc2c1CCC[C@H]2c1c[nH]cn1 [Example 9, (+)-N-[(5R)-5-(1H-imidazol-4-yl)-5,6,7,8-tetrahydro-1-naphthalenyl]methanesulfonamide] | 0.0204 | 48.7 | – | – | – | – | – | – | – | –
2 | CS(=O)(=O)Nc1cccc2c1CCC[C@@H]2c1c[nH]cn1 [Example 10, (−)-N-[(5S)-5-(1H-imidazol-4-yl)-5,6,7,8-tetrahydro-1-naphthalenyl]methanesulfonamide] | > 0.3 | >300 | – | – | – | – | – | – | – | –
3 | Cl.Cn1cnc(C2CCCc3c(NS(C)(=O)=O)cccc32)c1 (stereo not drawn) [Example 14, N-[5,6,7,8-tetrahydro-5-(1-methyl-1H-imidazol-4-yl)-1-naphthalenyl]methanesulfonamide, hydrochloride] | > 1 | >1000 | > 1 | 5.98 | 5.69 | 6.56 | > 1000 | – | – | –
4 | CC(=O)Nc1cccc2c1CCCC2c1c[nH]cn1.O=C(O)/C=C\C(=O)O (stereo not drawn) [Example 16, N-[5,6,7,8-tetrahydro-5-(1H-imidazol-4-yl)-1-naphthalenyl]acetamide, maleate] | 0.0684 | 220 | – | – | – | – | – | – | – | –
5 | CS(=O)(=O)Nc1cccc2c1OCCC2c1c[nH]cn1.O=C(O)/C=C\C(=O)O (stereo not drawn) [Example 19, N-[4-(1H-imidazol-4-yl)-3,4-dihydro-2H-chromen-8-yl]methanesulfonamide, maleate] | 0.0671 | – | – | – | – | – | – | – | – | –
6 | O=C(O)/C=C\C(=O)O.O=S(=O)(CC(F)(F)F)Nc1cccc2c1CCCC2c1c[nH]cn1 (stereo not drawn) [Example 20, N-[5,6,7,8-tetrahydro-5-(1H-imidazol-4-yl)-1-naphthalenyl]-2,2,2-trifluoroethanesulfonamide, maleate] | – | 885 | > 1 | – | – | 6.60 | > 1000 | 2820 | 0.209 | 6.1
7 | CCS(=O)(=O)Nc1cccc(Cc2c[nH]cn2)c1.O=C(O)/C=C\C(=O)O [Example 30, N-[3-(1H-imidazol-4-ylmethyl)phenyl]ethanesulfonamide, maleate] | 0.0121 | 80.5 | > 1 | 6.55 | 6.05 | 6.87 | 0.692 | – | – | –
8 | CCS(=O)(=O)Nc1cccc2c1CCC2c1c[nH]cn1.O=C(O)/C=C\C(=O)O (stereo not drawn) [Example 39, N-[1-(1H-imidazol4-yl)-2,3-dihydro-1H-inden-4-yl]ethanesulfonamide, maleate] | 0.0044 | 5.6 | – | – | – | – | – | – | – | –
